Here are results for 16 compounds from patent US20250163104A1, “MACROCYCLIC IMMUNOMODULATORS” (priority 2021, published 2025).

By IC50 is commonly meant the concentration that gives 50% inhibition.

Structures are written as SMILES. Where a SMILES comes first, the peptide text is derived from it. Bridges are numbered along the chain shown (N, C = ends). [ ]: non-standard residue; d: D form. The star is where a group is joined. Bip = N[C@@H](Cc1ccc(-c2ccccc2)cc1)C(=O)O; 4Pal = N[C@@H](Cc1ccncc1)C(=O)O; Cha = N[C@@H](CC1CCCCC1)C(=O)O; Cit = NC(=O)NCCC[C@H](N)C(=O)O; Chg = N[C@H](C(=O)O)C1CCCCC1; dNle = CCCC[C@@H](N)C(=O)O; Carboxymethyl = O=C(O)C*; Orn = NCCC[C@H](N)C(=O)O; Dab = NCC[C@H](N)C(=O)O; Dap = NC[C@H](N)C(=O)O

In this assay the target is T1, human PD-1 / PD-L1-Ig binding on Jurkat cell line over-expressing human PD-1 (Jurkat-PD-1) (Homo sapiens, UniProt Q15116).
T1 construct: expressed in transfected cells; host or cells: Jurkat
T1 sequence (Q15116 25-288): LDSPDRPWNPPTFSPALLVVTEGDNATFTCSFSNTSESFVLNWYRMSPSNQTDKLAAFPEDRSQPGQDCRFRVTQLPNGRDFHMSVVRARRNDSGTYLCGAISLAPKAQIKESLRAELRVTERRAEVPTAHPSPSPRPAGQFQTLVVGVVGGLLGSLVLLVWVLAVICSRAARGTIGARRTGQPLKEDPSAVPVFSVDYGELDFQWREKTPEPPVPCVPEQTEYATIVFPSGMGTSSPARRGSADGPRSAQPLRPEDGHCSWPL
Nature of the assay: Jurkat-PD-1 Cell Binding High-Content Screening Assay (CBA). It is filed as cell-based. The note with it: Jurkat-PD-1 cells, PE-labeled PD-L1-Ig 20 nM final; read-out: Jurkat HPD1_PDL1 IC50. The method in brief:
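Read-out: high-content imaging of PE-tagged PD-L1-Ig bound to Jurkat cells overexpressing human PD-1, after fixation with 4% paraformaldehyde and Hoechst 33342 nuclear staining. Ligand was used at 20 nM final for 1 hour, after a 2 h compound exposure at 37° C in serum-containing DMEM.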
Consider `CCCC[C@H]1NC(=O)[C@H](CCCN)NC(=O)[C@H](C(C)C)NC(=O)[C@H](Cc2ccc(-c3ccccc3)cc2)NC(=O)[C@H](C(C)C)NC(=O)[C@H](Cc2c[nH]c3ccccc23)NC(=O)[C@H](CC(=O)O)NC(=O)[C@H](Cc2ccc(O)cc2)NC(=O)[C@H](CC(N)=O)NC(=O)CSC[C@@H](C(=O)N[C@@H](C)C(N)=O)NC(=O)[C@H]([C@@H](C)O)NC(=O)[C@H](C(C)C)NC(=O)[C@H](CC2CCCCC2)NC(=O)[C@H](CCN)NC1=O` [Compound 1696] ({CH2CO}-NYDWV[Bip]V[Orn][dNle][Dab][Cha]VTCA-NH2; thioether N-14), for which the IC50 worked out at 18.7 nM.
Regarding `CCCC[C@H]1NC(=O)[C@H](CCCN)NC(=O)[C@H](CCCNC(N)=O)NC(=O)[C@H](Cc2ccc(-c3ccccc3)cc2)NC(=O)[C@H](C(C)C)NC(=O)[C@H](Cc2c[nH]c3ccccc23)NC(=O)[C@H](CC(=O)O)NC(=O)[C@H](Cc2ccc(OCC(=O)O)cc2)NC(=O)[C@H](Cc2ccc(OCC(=O)O)cc2)NC(=O)CSC[C@@H](C(=O)N[C@@H](C)C(N)=O)NC(=O)[C@H]([C@@H](C)O)NC(=O)[C@H](C(C)C)NC(=O)[C@H](CC2CCCCC2)NC(=O)[C@H](CCN)NC1=O` [Compound 1698], the IC50 came to 32.3 nM.
Then `CCCC[C@H]1NC(=O)[C@H](CCCN)NC(=O)[C@H](CCCNC(N)=O)NC(=O)[C@H](Cc2ccc(-c3ccccc3)cc2)NC(=O)[C@H](C(C)C)NC(=O)[C@H](Cc2c[nH]c3ccccc23)NC(=O)[C@H](CC(=O)O)NC(=O)[C@H](Cc2ccc(OCC(=O)O)cc2)NC(=O)[C@H](CN)NC(=O)CSC[C@@H](C(=O)N[C@@H](C)C(N)=O)NC(=O)[C@H]([C@@H](C)O)NC(=O)[C@H](C(C)C)NC(=O)[C@H](CC2CCCCC2)NC(=O)[C@H](CCN)NC1=O` [Compound 1700], with 21.4 nM; and `CCCC[C@H]1NC(=O)[C@H](CCCN)NC(=O)[C@H](CCCNC(N)=O)NC(=O)[C@H](Cc2ccc(-c3ccccc3)cc2)NC(=O)[C@H](C(C)C)NC(=O)[C@H](Cc2c[nH]c3ccccc23)NC(=O)[C@H](CC(=O)O)NC(=O)[C@H](Cc2ccc(OCC(=O)O)cc2)NC(=O)[C@H](Cc2ccncc2)NC(=O)CSC[C@@H](C(=O)N[C@@H](C)C(N)=O)NC(=O)[C@H]([C@@H](C)O)NC(=O)[C@H](C(C)C)NC(=O)[C@H](CC2CCCCC2)NC(=O)[C@H](CCN)NC1=O` [Compound 1701], with 24.5 nM; and `CCCC[C@H]1NC(=O)[C@H](CCCN)NC(=O)[C@H](CCCNC(N)=O)NC(=O)[C@H](Cc2ccc(-c3ccccc3)cc2)NC(=O)[C@H](C(C)C)NC(=O)[C@H](Cc2c[nH]c3ccccc23)NC(=O)[C@H](CC(=O)O)NC(=O)[C@H](Cc2ccncc2)NC(=O)[C@H](Cc2ccc(OCC(=O)O)cc2)NC(=O)CSC[C@@H](C(=O)N[C@@H](C)C(N)=O)NC(=O)[C@H]([C@@H](C)O)NC(=O)[C@H](C(C)C)NC(=O)[C@H](CC2CCCCC2)NC(=O)[C@H](CCN)NC1=O` [Compound 1702], with 17 nM.
Consider `CCCC[C@H]1NC(=O)[C@H](CCCN)NC(=O)[C@H](CCCNC(N)=O)NC(=O)[C@H](Cc2ccc(-c3ccccc3)cc2)NC(=O)[C@H](C(C)C)NC(=O)[C@H](Cc2c[nH]c3ccccc23)NC(=O)[C@H](CC(=O)O)NC(=O)[C@H](Cc2ccncc2)NC(=O)[C@H](CN)NC(=O)CSC[C@@H](C(=O)N[C@@H](C)C(N)=O)NC(=O)[C@H]([C@@H](C)O)NC(=O)[C@H](C(C)C)NC(=O)[C@H](CC2CCCCC2)NC(=O)[C@H](CCN)NC1=O` [Compound 1703], for which the IC50 came to 25.1 nM.
Then `CCCC[C@H]1NC(=O)[C@H](CCCN)NC(=O)[C@H](CCCNC(N)=O)NC(=O)[C@H](Cc2ccc(-c3ccccc3)cc2)NC(=O)[C@H](C(C)C)NC(=O)[C@H](Cc2c[nH]c3ccccc23)NC(=O)[C@H](CC(=O)O)NC(=O)[C@H](Cc2ccc(O)cc2)NC(=O)[C@H](CC(N)=O)NC(=O)CSC[C@@H](C(=O)N[C@@H](C)C(N)=O)NC(=O)[C@H]([C@@H](C)O)NC(=O)[C@H](C(C)C)NC(=O)[C@H](CC2CCCCC2)NC(=O)[C@H](CCN)NC1=O` [Compound 1704] ({CH2CO}-NYDWV[Bip][Cit][Orn][dNle][Dab][Cha]VTCA-NH2; thioether N-14), with 35.8 nM; and `CCCC[C@H]1NC(=O)[C@H](CCCN)NC(=O)[C@H]([C@@H](C)CC)NC(=O)[C@H](Cc2ccc(-c3ccccc3)cc2)NC(=O)[C@H](C(C)C)NC(=O)[C@H](Cc2c[nH]c3ccccc23)NC(=O)[C@H](CC(=O)O)NC(=O)[C@H](Cc2ccc(C(=O)O)cc2)NC(=O)[C@H](Cc2ccncc2)NC(=O)CSC[C@@H](C(=O)N[C@@H](C)C(N)=O)NC(=O)[C@H]([C@@H](C)O)NC(=O)[C@H](C(C)C)NC(=O)[C@H](CC2CCCCC2)NC(=O)[C@H](CCN)NC1=O` [Compound 1705], with 14.3 nM.
To `CCCC[C@H]1NC(=O)[C@H](CCCN)NC(=O)[C@H]([C@@H](C)CC)NC(=O)[C@H](Cc2ccc(-c3ccccc3)cc2)NC(=O)[C@H](C(C)C)NC(=O)[C@H](Cc2c[nH]c3ccccc23)NC(=O)[C@H](CC(=O)O)NC(=O)[C@H](Cc2ccc(OCC(=O)O)cc2)NC(=O)[C@H](Cc2ccc(OCC(=O)O)cc2)NC(=O)CSC[C@@H](C(=O)N[C@@H](C)C(N)=O)NC(=O)[C@H]([C@@H](C)O)NC(=O)[C@H](C(C)C)NC(=O)[C@H](CC2CCCCC2)NC(=O)[C@H](CCN)NC1=O` [Compound 1706] belongs 11.5 nM.
To `CCCC[C@H]1NC(=O)[C@H](CCCN)NC(=O)[C@H]([C@@H](C)CC)NC(=O)[C@H](Cc2ccc(-c3ccccc3)cc2)NC(=O)[C@H](C(C)C)NC(=O)[C@H](Cc2c[nH]c3ccccc23)NC(=O)[C@H](CC(=O)O)NC(=O)[C@H](Cc2ccc(C(=O)O)cc2)NC(=O)[C@H](Cc2ccc(OCC(=O)O)cc2)NC(=O)CSC[C@@H](C(=O)N[C@@H](C)C(N)=O)NC(=O)[C@H]([C@@H](C)O)NC(=O)[C@H](C(C)C)NC(=O)[C@H](CC2CCCCC2)NC(=O)[C@H](CCN)NC1=O` [Compound 1707] belongs 18.6 nM.
Consider `CCCC[C@H]1NC(=O)[C@H](CCCN)NC(=O)[C@H]([C@@H](C)CC)NC(=O)[C@H](Cc2ccc(-c3ccccc3)cc2)NC(=O)[C@H](C(C)C)NC(=O)[C@H](Cc2c[nH]c3ccccc23)NC(=O)[C@H](CC(=O)O)NC(=O)[C@H](Cc2ccc(OCC(=O)O)cc2)NC(=O)[C@H](CN)NC(=O)CSC[C@@H](C(=O)N[C@@H](C)C(N)=O)NC(=O)[C@H]([C@@H](C)O)NC(=O)[C@H](C(C)C)NC(=O)[C@H](CC2CCCCC2)NC(=O)[C@H](CCN)NC1=O` [Compound 1708], for which the IC50 was 23 nM.
`CCCC[C@H]1NC(=O)[C@H](CCCN)NC(=O)[C@H]([C@@H](C)CC)NC(=O)[C@H](Cc2ccc(-c3ccccc3)cc2)NC(=O)[C@H](C(C)C)NC(=O)[C@H](Cc2c[nH]c3ccccc23)NC(=O)[C@H](CC(=O)O)NC(=O)[C@H](Cc2ccc(OCC(=O)O)cc2)NC(=O)[C@H](Cc2ccncc2)NC(=O)CSC[C@@H](C(=O)N[C@@H](C)C(N)=O)NC(=O)[C@H]([C@@H](C)O)NC(=O)[C@H](C(C)C)NC(=O)[C@H](CC2CCCCC2)NC(=O)[C@H](CCN)NC1=O` [Compound 1709]: the IC50 came out at 10.4 nM.
Then `CCCC[C@H]1NC(=O)[C@H](CCCN)NC(=O)[C@H]([C@@H](C)CC)NC(=O)[C@H](Cc2ccc(-c3ccccc3)cc2)NC(=O)[C@H](C(C)C)NC(=O)[C@H](Cc2c[nH]c3ccccc23)NC(=O)[C@H](CC(=O)O)NC(=O)[C@H](Cc2ccncc2)NC(=O)[C@H](Cc2ccc(OCC(=O)O)cc2)NC(=O)CSC[C@@H](C(=O)N[C@@H](C)C(N)=O)NC(=O)[C@H]([C@@H](C)O)NC(=O)[C@H](C(C)C)NC(=O)[C@H](CC2CCCCC2)NC(=O)[C@H](CCN)NC1=O` [Compound 1710] ({CH2CO}-Y(Carboxymethyl)[4Pal]DWV[Bip]I[Orn][dNle][Dab][Cha]VTCA-NH2; thioether N-14), with 33.9 nM; and `CCCC[C@H]1NC(=O)[C@H](CCCN)NC(=O)[C@H]([C@@H](C)CC)NC(=O)[C@H](Cc2ccc(-c3ccccc3)cc2)NC(=O)[C@H](C(C)C)NC(=O)[C@H](Cc2c[nH]c3ccccc23)NC(=O)[C@H](CC(=O)O)NC(=O)[C@H](Cc2ccncc2)NC(=O)[C@H](CN)NC(=O)CSC[C@@H](C(=O)N[C@@H](C)C(N)=O)NC(=O)[C@H]([C@@H](C)O)NC(=O)[C@H](C(C)C)NC(=O)[C@H](CC2CCCCC2)NC(=O)[C@H](CCN)NC1=O` [Compound 1711] ({CH2CO}-[Dap][4Pal]DWV[Bip]I[Orn][dNle][Dab][Cha]VTCA-NH2; thioether N-14), with 12.8 nM; and `CCCC[C@H]1NC(=O)[C@H](CCCN)NC(=O)[C@H]([C@@H](C)CC)NC(=O)[C@H](Cc2ccc(-c3ccccc3)cc2)NC(=O)[C@H](C(C)C)NC(=O)[C@H](Cc2c[nH]c3ccccc23)NC(=O)[C@H](CC(=O)O)NC(=O)[C@H](Cc2ccc(O)cc2)NC(=O)[C@H](CC(N)=O)NC(=O)CSC[C@@H](C(=O)N[C@@H](C)C(N)=O)NC(=O)[C@H]([C@@H](C)O)NC(=O)[C@H](C(C)C)NC(=O)[C@H](CC2CCCCC2)NC(=O)[C@H](CCN)NC1=O` [Compound 1712] ({CH2CO}-NYDWV[Bip]I[Orn][dNle][Dab][Cha]VTCA-NH2; thioether N-14), with 25.1 nM.
Then `CC(C)C[C@H]1NC(=O)[C@H](CCCN)NC(=O)[C@H](CCC(=O)O)NC(=O)[C@H](Cc2ccc(-c3ccccc3)cc2)NC(=O)[C@H](C2CCCCC2)NC(=O)[C@H](Cc2c[nH]c3ccccc23)NC(=O)[C@H](CC(=O)O)NC(=O)[C@H](Cc2ccc(OCC(=O)O)cc2)NC(=O)[C@H](CN)NC(=O)CSC[C@@H](C(=O)N[C@@H](C)C(N)=O)NC(=O)[C@H]([C@@H](C)O)NC(=O)[C@H](C(C)C)NC(=O)[C@H](CC2CCCCC2)NC(=O)[C@H](CCN)NC1=O` [Compound 1714] ({CH2CO}-[Dap]Y(Carboxymethyl)DW[Chg][Bip]E[Orn][dL][Dab][Cha]VTCA-NH2; thioether N-14), with 37.6 nM.
